Series [1] addresses T1, human beta-secretase-Fc fusion (Homo sapiens, UniProt P56817).
T1 construct: A plasmid containing cDNA encoding amino acids 1-460 of beta-secretase fused to the Fc portion of human IgG; made in house; host or cells: human embryonic kidney 293T cells, stably transfected; purified from conditioned medium on protein A
Nature of the series: Beta-secretase activity assay: cleavage of DNP-labeled APP peptides, HPLC. In kind it is biochemical. The note with it: peptide substrate 20 μM, pH 5.0, about 6 hours, room temperature; FIG. 11. The protocol: FIG. 11 is a graph depicting the ability of human beta-secretase-Fc fusion to cleave various APP peptides. The X-axis is the amount of enzyme in the reaction mixture and the Y-axis is the amount of cleavage (denoted as pmol product formed) of each of three substrate peptides. “Sw” refers to the APP peptide with the Swedish mutation; “Wt” refers to wild type APP peptide; and “MV” refers to a mutated APP peptide.
Recombinant native as well as mutant beta secretase polypeptides were assayed for activity by measuring the ability of the molecule to cleave various A-beta peptides.
Each assay was conducted as follows. […] Quenched reactions were analyzed by HPLC on a 5 μm, C18 reversed-phase column (Sephasil Peptide, 4.6×100 mm; Amersham Pharmacia Biotech, Piscataway, N.J.) using first a linear gradient of 18-31.5 percent acetonitrile in 0.1 percent TFA over 40 minutes, then 31.5-81 percent acetonitrile for 1 minute, then 81 percent acetonitrile for 4 minutes, and then returning to 18-percent acetonitrile for several minutes to reequilibrate the column. […] Proteolysis of the Sw and WT octapeptides was evaluated using a linear gradient of 27-37.8 percent acetonitrile over 24 minutes on the same column.
Both product and substrate were monitored by absorbance at 360 nm. […]
The concentration of standard was determined from the extinction coefficient of DNP (e365nm=16 mM^−1cm^−1). […]

Series [2] concerns 293T-APPsw101 cell line. Nature of the series: Assay for the 42 amino acid form of A-beta in medium of transfected cells. In kind it is cell-based, human. The following applies: Single Clone. The protocol:
(§1) A duplicate of each master cDNA 96 well plate was prepared. Each well of the duplicate plate contained about 75 microliters of Optimem I medium (Life Technologies Inc, Gaithersburg, Md.) and about 300 ng of cDNA library. About 75 microliters of a mixture of 12 microliters DMRIE-C Lipid per ml of Optimem I medium (Life Technologies Inc., Gaithersburg, Md.) was added to each well of the 96 well plate using a Multipette (Sagian Inc. Indianapolis, Ind.) robotic pipettor. The DMRIE C was allowed to complex for about 30 minutes. Meanwhile, the media was removed from a 96 well dish in which each well had been plated with about 15,000 cells/well of the 293T-APPsw 101 cell line two days before. About 125 microliters of the DNA/Lipid complex was added to each well of cells. The cells containing the DNA/lipid mixture were then incubated at 37 degrees C., 5 percent CO2 for about five hours. After incubation, 125 μl Optimem I supplemented with 20 percent FBS and 2× Penicillin/Streptomycin (0.1 unit/ml Penicillin, 0.1 μg/ml Streptomycin) (Life Technologies Inc., Gaithersburg, Md.) was added to stop the transfection. […] The medium from each well was then harvested, diluted 1:1 in Superblock (Pierce Inc., Rockford, Ill.), stamped into pre-coated ELISA plates and analyzed for the presence of A-beta as described below. […]

Series [3] relates to 293T-APPsw101 cell line. Nature of the series: Assay for total beta amyloid peptide in medium of transfected cells. In kind it is cell-based, human. The following applies: Single Clone; diluted 1:10 into pCMVi vector DNA; average of duplicate transfections. The method, then: as §1

The source of these data is US7579180B2, “Beta secretase polypeptides” (Amgen Inc., priority 1999, dated 2009).

T1 sequence (P56817 with tags, fused parts or gaps limits assumed): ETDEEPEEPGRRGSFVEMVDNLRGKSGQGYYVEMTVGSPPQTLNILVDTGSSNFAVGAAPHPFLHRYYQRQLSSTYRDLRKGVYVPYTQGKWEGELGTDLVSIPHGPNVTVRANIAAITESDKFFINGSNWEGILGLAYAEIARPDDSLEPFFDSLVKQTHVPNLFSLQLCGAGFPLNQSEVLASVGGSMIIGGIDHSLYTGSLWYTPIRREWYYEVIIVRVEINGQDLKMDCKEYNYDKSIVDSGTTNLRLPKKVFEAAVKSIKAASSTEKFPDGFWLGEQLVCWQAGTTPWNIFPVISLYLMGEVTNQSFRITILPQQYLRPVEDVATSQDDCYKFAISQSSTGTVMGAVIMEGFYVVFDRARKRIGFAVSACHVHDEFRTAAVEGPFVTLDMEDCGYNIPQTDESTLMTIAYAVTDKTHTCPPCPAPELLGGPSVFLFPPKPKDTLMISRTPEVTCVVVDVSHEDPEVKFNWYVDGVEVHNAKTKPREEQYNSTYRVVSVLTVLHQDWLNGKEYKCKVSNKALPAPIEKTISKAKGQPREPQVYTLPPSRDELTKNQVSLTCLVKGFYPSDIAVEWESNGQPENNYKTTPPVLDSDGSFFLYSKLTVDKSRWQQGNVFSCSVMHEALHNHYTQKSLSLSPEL

On to EVNLDAEF [Sw], for which the “cleavage of substrate peptide (pmol product formed), preference by the enzyme” value in series [1] is recorded as “clearly preferred by the enzyme over the wild type (Wt) substrate”.
On the same count and under the same terms, the result for EVKMDAEF [Wt] reads “preferred over the methionine to valine mutant (MV) substrate”.
Consider “Single Clone (β-Secretase): single cDNA clone from pool A-11 encoding human beta-secretase (SEQ ID NO:1)”, for which the “A-beta 42/Total” value with 293T-APPsw101 cell line [2] was 1.1. Also, in the series on 293T-APPsw101 cell line [2] (diluted 1:10 into pCMVi vector DNA, average of duplicate transfections), the “A-beta 42” value is reported as 327,505 total Europium counts. Further, the Total with 293T-APPsw101 cell line [3] is recorded as 295,438 total Europium counts.
